Measurements reported in patent publication US8629164B2, “Inhibitors of NF-κB” (Profectus Biosciences, Inc., priority 2009, dated 2014).
Entries after “also recorded” stand apart in the source; their conditions may differ.

Legend:
COX-2 expression = test: LPS-induced COX-2 expression in RAW264.7 cells; assay type: cell-based, mouse; conditions: pretreatment, at 6 to 12 h
Description: LPS stimulation induces the expression of COX-2 the enzyme responsible for prostaglandin E2.

RelB = biological target: T1, RelB (Homo sapiens, UniProt Q01201); test: TransAM NF-κB Family DNA Binding ELISA, RelB
T1 sequence (Q01201 1-579): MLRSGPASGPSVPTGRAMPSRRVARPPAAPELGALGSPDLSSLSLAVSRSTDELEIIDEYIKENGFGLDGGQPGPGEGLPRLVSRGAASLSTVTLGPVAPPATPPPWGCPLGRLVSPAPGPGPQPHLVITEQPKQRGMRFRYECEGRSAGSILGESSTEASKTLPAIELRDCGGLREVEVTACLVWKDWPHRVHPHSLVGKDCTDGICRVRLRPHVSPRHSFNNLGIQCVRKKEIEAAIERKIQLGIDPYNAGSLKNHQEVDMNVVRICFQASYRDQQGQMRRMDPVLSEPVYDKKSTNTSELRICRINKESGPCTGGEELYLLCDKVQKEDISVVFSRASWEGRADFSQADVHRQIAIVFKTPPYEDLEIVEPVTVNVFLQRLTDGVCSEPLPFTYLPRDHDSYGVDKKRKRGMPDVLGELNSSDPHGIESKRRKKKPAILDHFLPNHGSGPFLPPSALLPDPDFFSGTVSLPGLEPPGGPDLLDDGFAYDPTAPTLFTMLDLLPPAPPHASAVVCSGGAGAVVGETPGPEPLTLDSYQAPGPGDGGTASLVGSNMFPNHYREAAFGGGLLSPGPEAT
T1 sequence (Q00653 1-454 partner limits assumed): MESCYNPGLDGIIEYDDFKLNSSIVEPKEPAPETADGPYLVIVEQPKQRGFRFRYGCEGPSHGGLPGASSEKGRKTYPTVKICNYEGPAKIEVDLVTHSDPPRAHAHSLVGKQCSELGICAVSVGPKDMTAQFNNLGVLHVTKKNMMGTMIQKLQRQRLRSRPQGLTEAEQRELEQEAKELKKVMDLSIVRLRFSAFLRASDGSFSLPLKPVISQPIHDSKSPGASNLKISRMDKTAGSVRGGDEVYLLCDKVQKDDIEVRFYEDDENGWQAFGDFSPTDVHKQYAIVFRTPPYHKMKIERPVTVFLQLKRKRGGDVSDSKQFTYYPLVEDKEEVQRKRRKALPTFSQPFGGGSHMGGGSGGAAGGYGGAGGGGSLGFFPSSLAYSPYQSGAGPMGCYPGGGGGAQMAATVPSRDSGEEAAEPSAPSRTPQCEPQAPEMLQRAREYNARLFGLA

NF-κB [1] = test: 293-cell pNF-κB-luc reporter assay, TNF-α induced; assay type: cell-based; conditions: for EC50: HEK293 cells, NF-κB driven luciferase expression, read-out: 293/NFkB-luc EC50
Summary of the method: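 HEK293 cells with stably integrated NF-κB reporters, pNF-κB-luc (3 elements) or pTRH1-NF-κB-dscGFP (4 elements). Cells pretreated 2 h with 0–40 μM compound, then stimulated with 20 ng/ml TNF-α for 18 h; luminescence or fluorescence read. Activity referenced to 0.5% DMSO control; median of three independent experiments.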

[2] = test system: human peripheral blood mononuclear cells (hPBMCs); test: Cytotoxicity to hPBMCs (CellTiter-Glo); assay type: cell-based
Protocol: Human peripheral blood mononuclear cells (hPBMCs) were treated with example 1 or DHMEQ and the percentage of viable cells was assessed 24 hours post drug treatment. The graph represents the mean±the standard deviation of three replicate experiments.
The cytotoxicity profile of the compound of Example 1. The cytotoxicity of the compound of Example 1 was determined for human peripheral blood mononuclear cells (hPBMCs). As with the activity assay, the hPBMCs were treated with 0, 0.2, 1, 10, 20 and 40 μM of the compound of Example 1 for 2 hours, and then induced with 20 ng/ml TNF-α for 48 hours. The number of viable cells was determined using CellTiter-Glo luminescent cell viability assay (Promega (cat #G7573)). […] The selectivity index (the ratio of cytotoxicity CC50 to inhibitory IC50) is assigned to the compound of Example 1.

soluble IL-2Rα = test: Soluble IL-2Rα expression in PHA-P activated hPBMCs; assay type: cell-based, human; conditions: 10 μM, three days
Protocol: The graph is the mean of 2 independent experiments.
Soluble IL-2Rα is transcriptionally regulated by NF-κB. […] Human PBMCs were treated with 0, 0.2, 1, 10, 20 and 40 μM of the compound of Example 1 concurrent with PHA-P activation. The cells were cultured for an additional three days and media was harvested for marker assessment.

[3] = test system: MDA-MB-231 breast cancer cells; test: Cytotoxicity and radio-sensitization in MDA-MB-231 breast cancer cells; assay type: cell-based
[4] = test system: human RPMI8226 multiple myeloma; test: RPMI8226 multiple myeloma xenograft in mice; assay type: in vivo
Protocol: Neither PS-341 (1 mg/kg iv days 1, 4/week×4 weeks) nor the compound of Example 2 (15 mg/kg ip QD×21) treatment achieved statistical significant tumor growth inhibition in this study as compared to vehicle treatment (P>0.10).
Several compounds have been assessed for efficacy studies in rodent disease models. We first sought to obtain in vivo efficacy of the compounds in multiple myeloma which has high incidence of constitutive activation of both the canonical and non-canonical pathways.

NF-κB [5] = test: NF-κB DNA binding activity of p65+/+ MEF nuclear extract after IR; conditions: p65+/+ MEFs
[6] = RelB binding IC50 (uM), cells without % sign

Structure (SMILES) | LPS-induced COX-2 expression (COX-2 expression) | IC50 (RelB; [6]) | IC50 (NF-κB [1]; 2 hours pre-treatment, 20 ng/ml TNF-α 18 hours, median of three experiments ± standard error, read-out: median IC50, expression of the luciferase gene) | EC50 (NF-κB [1]) | selectivity (cytotoxicity CC50 to inhibitory IC50) compared to DHMEQ [2] | cytotoxicity to hPBMCs ([2]; up to 40 μM tested) | effect on sIL-2Rα (soluble IL-2Rα) | enhancement of radiation effect ([3]; 0.2 μM, MDA-MB-231) | LD50 of IR + compound ([3]; 0.2 μM, MDA-MB-231, IR alone 2.55 Gy) | LD50, single agent cytotoxic effect ([3]; MDA-MB-231 cells) | RPMI8226 tumor growth reduction ([4]; Example 2 15 mg/kg ip QD×21, xenograft mice, 15 mg/kg) | tolerability in xenograft model ([4]; mouse, in vivo) | nuclear extract NF-κB DNA binding activities after IR (NF-κB [5]) | IC50 (RelB; RelB binding to DNA IC50, FIG. 8, non-canonical pathway)
O=C(NC1=CC(=O)C2OC2C1O)c1cccnc1O (racemic) [Example 1, (±)-2-hydroxy-N-(2-hydroxy-5-oxo-7-oxabicyclo[4.1.0]hept-3-en-3-yl)nicotinamide] | strong inhibition | 7.4 µM | 16.2 ± 1.1 µM | 6.2 µM | greater selectivity | little detectable toxicity; also recorded: little cytotoxic effect | statistically significant affect |  |  |  |  |  |  | 
O=C(NC1=CC(=O)C2OC2C1O)c1cc2ccccc2nc1O (racemic) [Example 2, (±)-2-hydroxy-N-(2-hydroxy-5-oxo-7-oxabicyclo[4.1.0]hept-3-en-3-yl)quinoline-3-carboxamide] |  | 2 µM |  | 4.1 µM |  |  |  | 1.5 fold | 1.66 Gy | 0.4 µM | same level of tumor growth reduction as PS-341; also recorded: reduced RPMI8226 tumor growth | better tolerated than PS-341 | significantly decreased | ~2 µM
